Experimental data reported in ChEMBL document CHEMBL1681733, “Synthesis and evaluation of [(1R)-1-amino-2-(2,5-difluorophenyl)ethyl]cyclohexanes and 4-[(1R)-1-amino-2-(2,5-difluorophenyl)ethyl]piperidines as DPP-4 inhibitors” (Bioorg Med Chem Lett, 2011).

Experiments:
Dipeptidyl peptidase 2 = Dipeptidyl peptidase 2 (Homo sapiens, UniProt Q9UHL4); assay: Inhibition of QPP
Dipeptidyl peptidase 4 = Dipeptidyl peptidase 4 (Homo sapiens, UniProt P27487)
Prolyl endopeptidase FAP = target: T1, Prolyl endopeptidase FAP (Homo sapiens, UniProt Q12884); assay: Inhibition of FAP
T1 sequence (Q12884 whole entry): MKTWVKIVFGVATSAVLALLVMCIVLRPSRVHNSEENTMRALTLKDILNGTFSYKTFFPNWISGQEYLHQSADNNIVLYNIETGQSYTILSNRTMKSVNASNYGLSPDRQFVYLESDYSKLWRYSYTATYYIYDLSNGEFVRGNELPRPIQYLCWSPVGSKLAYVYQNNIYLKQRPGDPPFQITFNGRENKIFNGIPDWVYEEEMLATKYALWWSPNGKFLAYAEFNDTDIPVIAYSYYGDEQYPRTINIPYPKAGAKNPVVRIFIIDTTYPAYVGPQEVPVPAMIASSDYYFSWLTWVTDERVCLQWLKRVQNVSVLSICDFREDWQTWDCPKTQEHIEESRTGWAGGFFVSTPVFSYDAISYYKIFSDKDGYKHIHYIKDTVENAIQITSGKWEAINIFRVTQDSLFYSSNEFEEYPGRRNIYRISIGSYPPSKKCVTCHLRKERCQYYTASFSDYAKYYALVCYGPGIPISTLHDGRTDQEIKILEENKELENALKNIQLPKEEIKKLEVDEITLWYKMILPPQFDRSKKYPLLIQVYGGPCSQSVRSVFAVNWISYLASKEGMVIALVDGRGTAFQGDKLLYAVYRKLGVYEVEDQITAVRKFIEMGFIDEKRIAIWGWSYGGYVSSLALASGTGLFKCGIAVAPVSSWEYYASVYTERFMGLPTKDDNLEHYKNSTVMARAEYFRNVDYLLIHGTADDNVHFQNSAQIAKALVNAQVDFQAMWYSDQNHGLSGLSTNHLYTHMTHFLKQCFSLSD

Dipeptidyl peptidase 8 = Dipeptidyl peptidase 8 (Homo sapiens, UniProt Q6V1X1); assay: Inhibition of DPP8
Chain of Dipeptidyl peptidase 8 (Q6V1X1 whole entry): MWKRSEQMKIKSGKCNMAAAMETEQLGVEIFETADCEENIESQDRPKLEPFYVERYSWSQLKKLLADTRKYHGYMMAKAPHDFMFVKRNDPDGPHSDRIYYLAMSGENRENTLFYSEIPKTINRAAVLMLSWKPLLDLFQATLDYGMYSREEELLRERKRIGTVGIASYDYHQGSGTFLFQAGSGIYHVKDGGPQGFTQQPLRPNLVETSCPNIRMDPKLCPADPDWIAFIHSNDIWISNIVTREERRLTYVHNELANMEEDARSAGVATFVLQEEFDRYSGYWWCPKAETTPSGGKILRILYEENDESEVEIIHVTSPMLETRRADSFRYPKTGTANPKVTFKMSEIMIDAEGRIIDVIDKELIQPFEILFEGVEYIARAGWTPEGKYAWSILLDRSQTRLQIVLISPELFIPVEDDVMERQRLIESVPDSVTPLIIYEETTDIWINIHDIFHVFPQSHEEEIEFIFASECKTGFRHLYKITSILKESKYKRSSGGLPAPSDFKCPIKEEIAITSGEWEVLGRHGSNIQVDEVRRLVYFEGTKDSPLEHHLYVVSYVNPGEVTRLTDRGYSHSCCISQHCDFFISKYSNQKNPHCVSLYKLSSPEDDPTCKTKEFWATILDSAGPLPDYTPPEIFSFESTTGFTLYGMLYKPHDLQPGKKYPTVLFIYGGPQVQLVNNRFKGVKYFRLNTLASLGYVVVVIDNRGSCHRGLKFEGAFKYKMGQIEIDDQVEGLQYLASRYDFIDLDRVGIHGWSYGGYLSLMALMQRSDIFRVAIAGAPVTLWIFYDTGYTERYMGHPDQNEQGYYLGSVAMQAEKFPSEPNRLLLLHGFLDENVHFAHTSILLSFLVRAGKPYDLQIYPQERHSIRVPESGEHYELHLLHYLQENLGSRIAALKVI

Dipeptidyl peptidase 9 = Dipeptidyl peptidase 9 (Homo sapiens, UniProt Q86TI2); assay: Inhibition of DPP9
Chain of Dipeptidyl peptidase 9 (Q86TI2 whole entry): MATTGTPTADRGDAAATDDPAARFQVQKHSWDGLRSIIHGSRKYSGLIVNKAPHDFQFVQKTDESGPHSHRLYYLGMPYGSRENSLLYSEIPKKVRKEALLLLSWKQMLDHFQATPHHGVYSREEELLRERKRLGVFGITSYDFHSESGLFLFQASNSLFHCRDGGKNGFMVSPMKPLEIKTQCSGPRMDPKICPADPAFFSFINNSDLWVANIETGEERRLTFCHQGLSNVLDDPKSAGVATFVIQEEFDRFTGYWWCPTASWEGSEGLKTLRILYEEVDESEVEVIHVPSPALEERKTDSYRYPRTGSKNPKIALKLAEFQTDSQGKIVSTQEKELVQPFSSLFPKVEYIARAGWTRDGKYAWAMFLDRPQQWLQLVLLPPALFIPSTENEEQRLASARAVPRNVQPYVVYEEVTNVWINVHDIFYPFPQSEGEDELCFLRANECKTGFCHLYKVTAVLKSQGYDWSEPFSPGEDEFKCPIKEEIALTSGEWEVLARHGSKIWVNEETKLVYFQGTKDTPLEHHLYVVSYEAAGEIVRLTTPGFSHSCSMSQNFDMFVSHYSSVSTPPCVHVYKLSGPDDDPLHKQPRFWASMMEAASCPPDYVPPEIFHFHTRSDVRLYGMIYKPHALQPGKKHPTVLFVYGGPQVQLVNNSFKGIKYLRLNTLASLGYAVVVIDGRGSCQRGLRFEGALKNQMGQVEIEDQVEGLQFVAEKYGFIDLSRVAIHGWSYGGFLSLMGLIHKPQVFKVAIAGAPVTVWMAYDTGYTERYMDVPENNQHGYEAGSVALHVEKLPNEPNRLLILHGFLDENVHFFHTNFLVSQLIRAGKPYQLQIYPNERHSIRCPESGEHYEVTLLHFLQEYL

Chain of Dipeptidyl peptidase 4 (P27487 whole entry): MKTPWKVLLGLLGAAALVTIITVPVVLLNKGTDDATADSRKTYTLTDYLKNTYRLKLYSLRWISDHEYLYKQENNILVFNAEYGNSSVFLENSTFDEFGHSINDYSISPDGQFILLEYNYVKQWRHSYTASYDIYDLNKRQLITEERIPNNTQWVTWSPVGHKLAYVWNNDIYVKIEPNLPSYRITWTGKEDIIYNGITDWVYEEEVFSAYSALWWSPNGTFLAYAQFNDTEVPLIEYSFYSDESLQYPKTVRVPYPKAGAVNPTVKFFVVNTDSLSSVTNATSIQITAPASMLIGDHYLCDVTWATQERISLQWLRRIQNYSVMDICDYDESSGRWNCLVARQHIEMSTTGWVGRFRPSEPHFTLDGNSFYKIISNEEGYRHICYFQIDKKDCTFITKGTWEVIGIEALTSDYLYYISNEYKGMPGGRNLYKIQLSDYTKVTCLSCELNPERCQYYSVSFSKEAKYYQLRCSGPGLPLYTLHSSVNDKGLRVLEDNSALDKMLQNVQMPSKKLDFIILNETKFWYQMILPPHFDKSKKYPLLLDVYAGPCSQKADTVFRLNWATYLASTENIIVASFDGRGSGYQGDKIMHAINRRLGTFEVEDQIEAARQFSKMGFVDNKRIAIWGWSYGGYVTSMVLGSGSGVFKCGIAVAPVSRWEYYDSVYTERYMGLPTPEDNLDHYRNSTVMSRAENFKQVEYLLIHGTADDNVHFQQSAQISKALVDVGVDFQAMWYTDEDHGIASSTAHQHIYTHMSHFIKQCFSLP

Row | SMILES | IC50 (Dipeptidyl peptidase 2) | IC50 (Dipeptidyl peptidase 4) | IC50 (Prolyl endopeptidase FAP) | IC50 (Dipeptidyl peptidase 8) | IC50 (Dipeptidyl peptidase 9)
1 | N[C@H](Cc1cc(F)ccc1F)[C@H]1CC[C@H](N2CCn3c(nnc3C(F)(F)F)C2)CC1 | 18 µM | 0.33 µM | > 35 µM | – | –
2 | CN([C@H]1CC[C@H]([C@H](N)Cc2cc(F)ccc2F)CC1)S(=O)(=O)c1cccc(C#N)c1 | 9.6 µM | 0.085 µM | > 35 µM | > 69 µM | –
3 | CN([C@H]1CC[C@H]([C@H](N)Cc2cc(F)ccc2F)CC1)S(=O)(=O)c1ccc(OC(F)(F)F)cc1 | 29 µM | 0.4 µM | > 35 µM | > 100 µM | > 100 µM
4 | CN([C@H]1CC[C@H]([C@H](N)Cc2cc(F)ccc2F)CC1)S(=O)(=O)c1ccc(F)cc1F | – | – | > 35 µM | – | –
5 | Cc1[nH]ncc1S(=O)(=O)N(C)[C@H]1CC[C@H]([C@H](N)Cc2cc(F)ccc2F)CC1 | 57 µM | 0.28 µM | > 35 µM | – | > 100 µM
6 | Cn1cnc(S(=O)(=O)N(C)[C@H]2CC[C@H]([C@H](N)Cc3cc(F)ccc3F)CC2)c1 | > 100 µM | 0.5 µM | > 35 µM | > 100 µM | > 100 µM
7 | Cc1oncc1S(=O)(=O)N(C)[C@H]1CC[C@H]([C@H](N)Cc2cc(F)ccc2F)CC1 | 43 µM | 0.17 µM | > 35 µM | > 100 µM | > 100 µM
8 | CN([C@H]1CC[C@H]([C@H](N)Cc2cc(F)ccc2F)CC1)S(=O)(=O)c1cccnc1 | 35 µM | 0.11 µM | > 35 µM | > 100 µM | –
9 | CCN([C@H]1CC[C@H]([C@H](N)Cc2cc(F)ccc2F)CC1)S(=O)(=O)c1c(C)noc1C | 29 µM | 0.038 µM | > 35 µM | > 100 µM | –
10 | CN(C(=O)C(C)(C)C)[C@H]1CC[C@H]([C@H](N)Cc2cc(F)ccc2F)CC1 | – | – | > 35 µM | – | –
11 | CN(C(=O)c1cccnc1)[C@H]1CC[C@H]([C@H](N)Cc2cc(F)ccc2F)CC1 | 58 µM | 0.14 µM | > 35 µM | > 100 µM | –
12 | CN(C(=O)c1csnn1)[C@H]1CC[C@H]([C@H](N)Cc2cc(F)ccc2F)CC1 | – | – | > 35 µM | – | –
13 | CN(C(=O)c1ccno1)[C@H]1CC[C@H]([C@H](N)Cc2cc(F)ccc2F)CC1 | 58 µM | 0.12 µM | > 35 µM | > 100 µM | –
14 | Cn1ccc(C(=O)N(C)[C@H]2CC[C@H]([C@H](N)Cc3cc(F)ccc3F)CC2)n1 | 21 µM | 0.14 µM | > 35 µM | > 100 µM | –
15 | CC(=O)N(Cc1ccccc1)[C@H]1CC[C@H]([C@H](N)Cc2cc(F)ccc2F)CC1 | 17 µM | 0.11 µM | > 35 µM | > 100 µM | –
16 | N[C@H](Cc1cc(F)ccc1F)[C@H]1CC[C@@H](N2CCC(F)(F)C2)CC1 | – | – | > 35 µM | – | –
17 | NC(=O)[C@H]1CCCN([C@H]2CC[C@H]([C@H](N)Cc3cc(F)ccc3F)CC2)C1 | – | – | > 35 µM | – | –
18 | N[C@H](Cc1cc(F)ccc1F)[C@H]1CC[C@H](N2CCC[C@@H](O)C2)CC1 | > 100 µM | 0.27 µM | > 35 µM | – | –
19 | CN(Cc1cccc(C#N)c1)[C@H]1CC[C@H]([C@H](N)Cc2cc(F)ccc2F)CC1 | 14 µM | 0.22 µM | > 35 µM | > 100 µM | –
20 | CS(=O)(=O)N1CCC([C@H](N)Cc2cc(F)ccc2F)CC1 | – | – | > 35 µM | – | –
21 | N[C@H](Cc1cc(F)ccc1F)C1CCN(c2cccnc2)CC1 | – | – | > 35 µM | – | –
22 | N[C@H](Cc1cc(F)ccc1F)C1CCN(c2ccncc2)CC1 | – | – | > 35 µM | – | –
23 | N#Cc1cncc(N2CCC([C@H](N)Cc3cc(F)ccc3F)CC2)c1 | – | – | > 35 µM | – | –
24 | COc1ncc(N2CCC([C@H](N)Cc3cc(F)ccc3F)CC2)cn1 | – | – | > 35 µM | – | –
25 | COC(=O)C1CCCC(N2CCC([C@H](N)Cc3cc(F)ccc3F)CC2)C1 (stereo not given in full) | – | – | > 35 µM | – | –
26 | N[C@H](Cc1cc(F)ccc1F)C1CCN(C2CCCC(C(=O)O)C2)CC1 (stereo not given in full) | – | – | > 35 µM | – | –
27 | NC(=O)C1CCCC(N2CCC([C@H](N)Cc3cc(F)ccc3F)CC2)C1 (stereo not given in full) | – | – | > 35 µM | – | –
28 | NC(=O)C1CCCN([C@H]2CC[C@H]([C@H](N)Cc3cc(F)ccc3F)CC2)C1 (single isomer, unassigned) | – | – | > 35 µM | – | –

Continued, values first:

Row | IC50 (Dipeptidyl peptidase 2) | IC50 (Dipeptidyl peptidase 4) | IC50 (Prolyl endopeptidase FAP) | IC50 (Dipeptidyl peptidase 8) | IC50 (Dipeptidyl peptidase 9) | SMILES
29 | – | – | > 35 µM | – | – | N[C@H](C(=O)N1CCSC1)[C@H]1CC[C@H](NC(=O)c2ccc(OC(F)(F)F)cc2)CC1
30 | – | – | > 35 µM | – | – | CN([C@H]1CC[C@H]([C@H](N)Cc2cc(F)ccc2F)CC1)S(=O)(=O)c1ccccc1
31 | – | – | > 35 µM | – | – | CN([C@H]1CC[C@H]([C@H](N)Cc2cc(F)ccc2F)CC1)S(=O)(=O)c1ccccc1C(F)(F)F
32 | 23 µM | 0.18 µM | > 35 µM | > 100 µM | – | CN([C@H]1CC[C@H]([C@H](N)Cc2cc(F)ccc2F)CC1)S(=O)(=O)c1ccc(C#N)cc1
33 | – | – | > 35 µM | – | – | CN([C@H]1CC[C@H]([C@H](N)Cc2cc(F)ccc2F)CC1)S(=O)(=O)c1ccc(N)cc1
34 | – | – | > 35 µM | – | – | CN([C@H]1CC[C@H]([C@H](N)Cc2cc(F)ccc2F)CC1)S(=O)(=O)c1ccc(C(N)=O)cc1
35 | – | – | > 35 µM | – | – | CN([C@H]1CC[C@H]([C@H](N)Cc2cc(F)ccc2F)CC1)S(=O)(=O)c1ccc(-c2cnco2)cc1
36 | – | – | > 35 µM | – | – | CC(=O)Nc1nc(C)c(S(=O)(=O)N(C)[C@H]2CC[C@H]([C@H](N)Cc3cc(F)ccc3F)CC2)s1
37 | 10 µM | 0.67 µM | > 35 µM | > 100 µM | – | Cc1noc(C)c1S(=O)(=O)N(Cc1ccccc1)[C@H]1CC[C@H]([C@H](N)Cc2cc(F)ccc2F)CC1
38 | 40 µM | 0.57 µM | > 35 µM | > 100 µM | > 100 µM | Cc1noc(C)c1S(=O)(=O)N(CCCC(F)(F)F)[C@H]1CC[C@H]([C@H](N)Cc2cc(F)ccc2F)CC1
39 | 68 µM | 0.26 µM | > 35 µM | > 100 µM | – | CCN([C@H]1CC[C@H]([C@H](N)Cc2cc(F)ccc2F)CC1)S(C)(=O)=O
40 | 11 µM | 1.3 µM | > 35 µM | > 100 µM | – | CS(=O)(=O)N(Cc1ccccc1)[C@H]1CC[C@H]([C@H](N)Cc2cc(F)ccc2F)CC1
41 | 86 µM | 2.4 µM | > 35 µM | > 100 µM | > 100 µM | CS(=O)(=O)N(CCCC(F)(F)F)[C@H]1CC[C@H]([C@H](N)Cc2cc(F)ccc2F)CC1
42 | > 100 µM | 0.99 µM | > 35 µM | – | – | CC(=O)N(C)[C@H]1CC[C@@H]([C@H](N)Cc2cc(F)ccc2F)CC1
43 | > 100 µM | 0.13 µM | > 35 µM | > 100 µM | – | CC(C)C(=O)N(C)[C@H]1CC[C@H]([C@H](N)Cc2cc(F)ccc2F)CC1
44 | > 100 µM | 0.73 µM | > 35 µM | > 100 µM | – | CN(C(=O)CCN)[C@H]1CC[C@H]([C@H](N)Cc2cc(F)ccc2F)CC1
45 | – | – | > 35 µM | – | – | CN(C(=O)c1c[nH]c2ccccc12)[C@H]1CC[C@H]([C@H](N)Cc2cc(F)ccc2F)CC1

Row | IC50 (Dipeptidyl peptidase 2) | IC50 (Dipeptidyl peptidase 4) | IC50 (Prolyl endopeptidase FAP) | IC50 (Dipeptidyl peptidase 8) | IC50 (Dipeptidyl peptidase 9) | SMILES
46 | – | – | > 35 µM | – | – | Cc1noc(C)c1C(=O)N(C)[C@H]1CC[C@H]([C@H](N)Cc2cc(F)ccc2F)CC1
47 | – | – | > 35 µM | – | – | N[C@H](Cc1cc(F)ccc1F)[C@H]1CC[C@H](N2CCC(F)(F)C2)CC1
48 | > 100 µM | 0.28 µM | > 35 µM | – | – | N[C@H](Cc1cc(F)ccc1F)[C@H]1CC[C@@H](N2CCn3c(nnc3C(F)(F)F)C2)CC1
49 | – | – | > 35 µM | – | – | N[C@H](Cc1cc(F)ccc1F)[C@H]1CC[C@@H](N2CCCCC2)CC1
50 | – | – | > 35 µM | – | – | N[C@H](Cc1cc(F)ccc1F)[C@H]1CC[C@H](N2CCCCC2)CC1
51 | – | – | > 35 µM | – | – | NC(=O)C1CCCN([C@H]2CC[C@@H]([C@H](N)Cc3cc(F)ccc3F)CC2)C1 (stereo not given in full)
52 | – | – | > 35 µM | – | – | NC(=O)O[C@@H]1CCCN([C@H]2CC[C@H]([C@H](N)Cc3cc(F)ccc3F)CC2)C1
53 | – | – | > 35 µM | – | – | N[C@H](Cc1cc(F)ccc1F)[C@H]1CC[C@H](NCCCC(F)(F)F)CC1
54 | 12 µM | 0.29 µM | > 35 µM | > 100 µM | – | CN(Cc1ccc(C#N)cc1)[C@H]1CC[C@H]([C@H](N)Cc2cc(F)ccc2F)CC1
55 | – | – | > 35 µM | – | – | CCN(Cc1ccccc1)[C@H]1CC[C@H]([C@H](N)Cc2cc(F)ccc2F)CC1
56 | – | – | > 35 µM | – | – | N[C@H](Cc1cc(F)ccc1F)C1CCN(c2ccccn2)CC1
57 | – | – | > 35 µM | – | – | N[C@H](Cc1cc(F)ccc1F)C1CCN(c2ccc(F)nc2)CC1
58 | – | – | > 35 µM | – | – | CCOC(=O)c1cncc(N2CCC([C@H](N)Cc3cc(F)ccc3F)CC2)c1
59 | – | – | > 35 µM | – | – | N[C@H](Cc1cc(F)ccc1F)C1CCN(c2ncccn2)CC1
60 | – | – | > 35 µM | – | – | N[C@H](Cc1cc(F)ccc1F)C1CCN(c2cnc(=O)[nH]c2)CC1
61 | 23 µM | 0.69 µM | > 35 µM | > 100 µM | – | N[C@H](Cc1cc(F)ccc1F)[C@H]1CC[C@H](N(CCCC(F)(F)F)Cc2ccccc2)CC1 (mixture of isomers)
